Test results as given in ChEMBL document CHEMBL5046276 (J Med Chem, 2022).
The source made the active and inactive calls. No cut-off for these calls is given here.

Tests used:
Plasmodium falciparum [1] = assay: Antimalarial activity against asexual blood stage wild-type Plasmodium falciparum 3D7 assessed as parasite growth inhibition incubated for 72 hrs by SYBR Green I staining based fluorescence analysis; format: functional, organism-based; settings: 3D7, 72 h
Plasmodium falciparum [2] = assay: Antimalarial activity against asexual blood stage chloroquine-resistant Plasmodium falcipuram GB4 assessed as parasite growth inhibition incubated for 72 hrs by SYBR Green I staining based fluorescence analysis; format: functional, organism-based; settings: GB4, 72 h
[3] = Toxicity in BALB/c mouse infected with blood stage Plasmodium yoelii assessed as animal death at 30 to 90 mg/kg, ip qd for 5 days and measured on day 60; format: organism-based; settings: in vivo, 1440 h, dose 30-90 mg/kg, time 60 day
Plasmodium yoelii = assay: Antimalarial activity against blood stage Plasmodium yoelii infected in BALB/c mouse assessed as parasite killing by measuring parasitemia at 30 to 90 mg/kg, ip qd for 5 days and measured on day 60; format: functional, organism-based; settings: dose 30-90 mg/kg, time 60.0 day
Plasmodium falciparum [4] = assay: Antimalarial activity against early stage (II) Plasmodium falciparum NF54 gametocytes transfected with p230p-Luc assessed as reduction in gametocyte viability incubated for 48 hrs by luciferase reporter gene based bioluminescence assay; format: functional, organism-based; settings: NF54, 48 h
Plasmodium falciparum [5] = assay: Antimalarial activity against synchronized Plasmodium falcipuram 3D7 infected in human RBC assessed as irreversible inhibition of parasite growth at ring stage at 40 nM treated at 5 to 17 hpi incubated for 12 hrs followed by compound washout and replacement with fresh medium without compounds and measured after 4 days by flow cytometry; format: functional, organism-based
[6] = In vivo inhibition of C-terminal glmS fused HDAC1 in Plasmodium falcipuram 3D7 assessed as inhibition of parasite growth incubated for 4 hrs followed by compound washout and replacement with fresh medium with compounds measured after 68 hrs by SYBR Green I staining based fluorescence analysis; format: functional, organism-based, Plasmodium falciparum
Histone deacetylase 8 = target: T1, Histone deacetylase 8 (Homo sapiens, UniProt Q9BY41); assay: Inhibition of recombinant human full length C-terminal His-tagged HDAC8 expressed in baculovirus-infected Sf9 insect cells using Ac-peptide as substrate incubated for 4 hrs followed by trypsin addition and further incubated for 2 hrs
T1 sequence (Q9BY41 whole entry): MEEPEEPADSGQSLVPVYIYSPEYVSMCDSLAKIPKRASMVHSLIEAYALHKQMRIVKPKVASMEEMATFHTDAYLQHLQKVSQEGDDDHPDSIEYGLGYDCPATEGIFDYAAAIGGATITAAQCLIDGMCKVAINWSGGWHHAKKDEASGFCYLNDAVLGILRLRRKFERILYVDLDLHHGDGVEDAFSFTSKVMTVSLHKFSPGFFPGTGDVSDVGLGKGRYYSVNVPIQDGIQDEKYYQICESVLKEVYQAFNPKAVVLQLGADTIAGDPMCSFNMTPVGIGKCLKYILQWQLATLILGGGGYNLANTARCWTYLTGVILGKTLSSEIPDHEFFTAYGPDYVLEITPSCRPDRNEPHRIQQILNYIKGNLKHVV

[7] = Apparent clearance in BALB/c mouse at 5 mg/kg, ip measured after upto 24 hrs by LC-MS/MS analysis; format: ADME, organism-based; settings: in vivo, read-out: CLz/F (converted)
[8] = Metabolic stability in rat liver microsomes assessed as half life at […] incubated for 45 mins in presence of NADPH by LC/MS analysis; format: ADME, Microsome
Histone deacetylase 3 = Histone deacetylase 3 (Homo sapiens, UniProt O15379); assay: Potency index, ratio of test compound IC50 to Quisinostat IC50 for inhibition of human C-terminal His tagged HDAC3 (1 to 428 residues) expressed in baculovirus-infected Sf9 cells using Ac-peptide as substrate incubated for 4 hrs
[9] = target: T2, Protein deacetylase HDAC6 (Homo sapiens) (UniProt Q9UBN7); assay: Potency index, ratio of test compound IC50 to Quisinostat IC50 for inhibition of recombinant human full length N-terminal GST tagged HDAC6 (1 to 1215 residues) expressed in baculovirus-infected Sf9 cells using Ac-peptide as substrate incubated for 4 hrs
T2 sequence (whole entry): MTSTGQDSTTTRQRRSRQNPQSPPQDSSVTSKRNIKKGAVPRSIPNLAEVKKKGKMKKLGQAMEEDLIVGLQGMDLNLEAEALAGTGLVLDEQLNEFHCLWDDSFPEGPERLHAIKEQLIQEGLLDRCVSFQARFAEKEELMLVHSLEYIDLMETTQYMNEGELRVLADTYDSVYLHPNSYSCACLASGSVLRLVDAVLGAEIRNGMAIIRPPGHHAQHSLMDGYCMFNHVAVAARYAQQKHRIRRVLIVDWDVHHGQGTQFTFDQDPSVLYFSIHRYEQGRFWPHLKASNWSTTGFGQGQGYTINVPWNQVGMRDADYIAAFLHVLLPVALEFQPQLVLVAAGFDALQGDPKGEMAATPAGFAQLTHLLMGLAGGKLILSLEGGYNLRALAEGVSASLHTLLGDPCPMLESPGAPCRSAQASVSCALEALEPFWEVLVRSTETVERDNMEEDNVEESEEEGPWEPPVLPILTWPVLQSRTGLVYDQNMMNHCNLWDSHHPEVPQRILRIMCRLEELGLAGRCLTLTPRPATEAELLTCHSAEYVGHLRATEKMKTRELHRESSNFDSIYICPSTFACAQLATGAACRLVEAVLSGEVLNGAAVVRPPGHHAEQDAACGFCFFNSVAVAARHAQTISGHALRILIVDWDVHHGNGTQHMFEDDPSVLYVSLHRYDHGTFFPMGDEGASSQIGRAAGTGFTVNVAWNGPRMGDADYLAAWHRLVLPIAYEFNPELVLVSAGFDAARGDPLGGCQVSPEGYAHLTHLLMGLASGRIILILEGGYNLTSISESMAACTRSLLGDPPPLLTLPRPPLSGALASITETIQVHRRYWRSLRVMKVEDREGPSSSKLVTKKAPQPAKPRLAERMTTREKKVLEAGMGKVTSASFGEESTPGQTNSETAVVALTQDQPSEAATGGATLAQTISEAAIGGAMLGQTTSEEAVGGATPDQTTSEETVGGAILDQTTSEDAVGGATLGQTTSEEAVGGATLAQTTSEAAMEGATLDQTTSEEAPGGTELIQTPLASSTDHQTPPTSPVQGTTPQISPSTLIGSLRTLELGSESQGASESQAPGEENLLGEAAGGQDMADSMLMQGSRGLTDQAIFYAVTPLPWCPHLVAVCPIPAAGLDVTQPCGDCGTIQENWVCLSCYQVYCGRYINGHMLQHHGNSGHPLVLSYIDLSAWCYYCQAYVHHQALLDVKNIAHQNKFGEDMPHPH

Histone deacetylase 3, sequence (O15379 whole entry, the tested form may be a part): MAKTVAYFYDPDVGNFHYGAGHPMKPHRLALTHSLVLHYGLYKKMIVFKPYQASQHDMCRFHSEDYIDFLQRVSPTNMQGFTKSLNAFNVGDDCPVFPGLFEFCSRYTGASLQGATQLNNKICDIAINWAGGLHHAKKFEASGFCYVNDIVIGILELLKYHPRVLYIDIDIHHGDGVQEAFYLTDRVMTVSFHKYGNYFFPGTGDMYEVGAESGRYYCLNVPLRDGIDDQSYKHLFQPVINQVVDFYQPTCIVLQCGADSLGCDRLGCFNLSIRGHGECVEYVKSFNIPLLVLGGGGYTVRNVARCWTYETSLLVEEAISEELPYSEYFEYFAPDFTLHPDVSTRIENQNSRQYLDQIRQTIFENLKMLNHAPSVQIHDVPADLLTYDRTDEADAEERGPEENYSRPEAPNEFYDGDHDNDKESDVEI

Compound: Cl.Cn1cc(CN2CC3(CCN(c4ncc(C(=O)NO)cn4)C3)C2)c2ccc(C#N)cc21
- IC50 (Plasmodium falciparum [1]): 1.26 nM
- IC50 (Plasmodium falciparum [2]): 3.06 nM
- Activity [3]: Non-Toxic
- Activity (Plasmodium yoelii): Active
- IC50 (Plasmodium falciparum [4]): 15.4 nM
- Activity (Plasmodium falciparum [5]): Active
- IC50 [6]: 16.8 nM
- IC50 (Histone deacetylase 8): 29.9 nM
- CL/F [7]: 130 mL/min/kg
- half-life [8]: > 2 h
- Ratio IC50 (Histone deacetylase 3): 3
- Ratio IC50 [9]: 3
